In PubChem BioAssay AID602389 (Broad Institute, 2012):
Activity calls are given as the source filed them.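 Rule for the calls: active = growth down by 35% or more in duplicate, reached at no more than twice the top tested dose; inactive = growth raised instead, and the rest.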

Experiment: P. aeruginosa growth delay under iron chelation, dose response, absorbance, plate reader, cherry-picks (AID 602389)
Conditions: P. aeruginosa growth with EDDHA, OD600, 24-30 h; at 50 µM (top of the series)

Compound | growth change, negative = inhibition
N#CC(c1ccc(Cl)cc1)c1ccc(Cl)nn1 (centres undefined) | -4.67% (inactive)
O=[N+]([O-])c1ccc(N2CCCCC2)nc1 | -2.09% (inactive)
O=C1C2C3C=CC(C4CC34)C2C(=O)N1Cc1ccco1 (centres undefined) | 43.3% (inactive)
O=C1C=C(c2cc(F)ccc2F)C[C@@H](c2ccc(F)cc2)C1 | -1.93% (inactive)
Cc1ccc(C)c(S(=O)(=O)NC2CCSC2=O)c1 (centres undefined) | -4.84% (inactive)
COc1ccc(N2CCN(C(=O)c3ccc(Br)o3)CC2)cc1 | -4.3% (inactive)
COc1ccc(N=C(C)C2=C(O)CSC2=O)cc1 | 15.6% (inactive)
O=[N+]([O-])c1ccc(N2CCCCC2)cc1 | 8.85% (inactive)
COc1ccc(CNCc2cccc(Cl)c2)cc1 | 4.12% (inactive)
CC(C)N=C(NC#N)SCc1ccccc1F | -1.36% (inactive)
COc1ccc(-c2cc3ncccc3cn2)cc1 | 7% (inactive)
O=C(NC1CCSC1)c1cccc(Cl)c1 (centres undefined) | 2.12% (inactive)
O=CNC1(c2ccccc2)CCCCC1 | -5.85% (inactive)
N#CC(c1cccc(Cl)c1)c1ncc(C(F)(F)F)cc1Cl (centres undefined) | 1.76% (inactive)
O=S1(=O)CCOC[C@H](c2ccccc2)N1Cc1cccc(Cl)c1 | 7.06% (inactive)
Clc1ccc2scc(CN3CCCCC3)c2c1 | -3.92% (inactive)
N#CC1C(C#N)C2CCC1C1C2N1c1ccccc1 (centres undefined) | -7.23% (inactive)
OC(c1cccc(Cl)c1)c1nccc2ccccc12 (centres undefined) | -6.69% (inactive)
Cn1cccc1C(=O)OCc1cc(-c2ccco2)on1 | 6.86% (inactive)
Cc1ccc2nc(-c3ccc4c(c3)OCCO4)cn2c1 | 3.5% (inactive)
O=C(NC1CCCCCCC1)c1cccc(Cl)c1 | -14.2% (inactive)
CCNC(=O)COc1ccc2ccccc2c1 | 3.07% (inactive)
Cc1cc(NC(=O)c2c(F)c(F)c(F)c(F)c2F)no1 | 14.5% (inactive)
Cc1cc(NC(=O)c2cc([N+](=O)[O-])cc([N+](=O)[O-])c2C)no1 | 5.73% (inactive)
O=C(c1cccc([N+](=O)[O-])c1)N1CC2C3C=CC(C3)C2C1 (centres undefined) | 5.48% (inactive)

Compound | growth change, negative = inhibition
COC(=O)c1cc(-c2ccc(OC)cc2)on1 | -7.05% (inactive)
Cc1ccc2scc(CN3CCCC3)c2c1 | -6.73% (inactive)
CCOC(=O)c1cc2c(s1)-c1c(C)cccc1OC2 | 6.54% (inactive)
O=[N+]([O-])c1ccc(N2CCCC2)nc1 | 9.43% (inactive)
CO/N=C/c1cn(-c2ccc(Cl)cc2)nn1 | -0.342% (inactive)
COc1ccc(/C(C#N)=C/c2cccnc2)cc1 | -1.53% (inactive)
COc1ccccc1C(C#N)c1cccc(Cl)n1 (centres undefined) | 5.02% (inactive)
O=C1N[C@@H](Cc2ccccc2)[C@@H](c2ccco2)O1 | 16.2% (inactive)
CC(C)(C)NC(=O)c1cc(Cl)ccc1[N+](=O)[O-] | 12.1% (inactive)
Cc1cccc(NC(=O)Nc2cc(C)on2)c1 | 2.69% (inactive)
Cn1cccc1C(C#N)c1cccc(F)c1C#N (centres undefined) | 7.38% (inactive)
O=[N+]([O-])c1ccc(-c2cccnc2)cc1 | -3.69% (inactive)
CCOC(=O)/C=C(\C)Sc1cc(=O)oc2ccccc12 | 19.4% (inactive)
CCC(C)NS(=O)(=O)c1ccc(OC)c(Cl)c1Cl (centres undefined) | -10.7% (inactive)
N#CC(c1ccc(Cl)nn1)c1c(F)cccc1Cl (centres undefined) | 15% (inactive)
CCOC(=O)CCCn1ncn2c(cc3occc32)c1=O | -2.87% (inactive)
N#C/C(=C/c1ccco1)c1nc2ccccc2s1 | 18.7% (inactive)
Cc1cc(C)nc(N(C#N)Cc2cccc([N+](=O)[O-])c2)n1 | 12.9% (inactive)
O=CN(c1ccccc1)c1ccc2ccccc2c1 | -5.6% (inactive)
O=C(/C=C/c1cccs1)c1cc(Cl)ccc1O | 18.9% (inactive)
Cc1ccc(O)c(C(=O)/C=C/c2ccc3c(c2)OCCO3)c1 | 19.8% (inactive)
CCOC(=O)CC(C#N)c1cn(C)c2ccccc12 (centres undefined) | -0.14% (inactive)
COC(=O)c1ccc(/C=C(\C#N)c2ccccn2)cc1 | 9.37% (inactive)
O=C1C2C(C(=O)N1Cc1ccco1)C1C=CC2C12CC2 (centres undefined) | 2.46% (inactive)
